In assay [1] the test system is mononuclear phagocytes. Description: ApoA-I mediated cholesterol efflux from cholesterol-loaded monocytes (14C-cholesterol). It is filed as cell-based, Human. The note with it: ApoA-I 10 µg/ml + 24 h pretreatment with forskolin 10 µM, percent of basal efflux, men and women. As to the method: Cellular Lipid Efflux. Human peripheral blood cells were isolated from lithium-heparin treated blood samples of adult, healthy volunteers. The peripheral blood mononuclear cell fraction was separated by density gradient centrifugation over Ficoll-Histopaque […] (Sigma). Cells positive for CD2, CD7, CD16, CD19 and CD56 were removed by appropriate magnetic beads (Dynal) leaving > 80% pure monocytes. Isolated monocytes were then cultured at a density of 1.5x10^5 cells/mL in polystyrene culture dishes (100x15mm Petri dish, Falcon) in a serum-free macrophage medium (Macrophage-SFM, Gibco Life Technologies) supplemented with 50ng/mL human recombinant M-CSF (R&D Systems). After an overnight incubation cells were cholesterol loaded for 24 hrs by addition of enzymatically modified LDL (E-LDL; 40 µg/ml), which was prepared as previously described (31). […] Lipids were extracted by liquid extraction according to the method of Bligh and Dyer (13). ^3H and ^14C radioactivities of the total lipid extracts were measured by liquid scintillation counting in order to distinguish between ^3H labeled phospholipids and ^14C-cholesterol. Lipid efflux was calculated as percentage of disintegrations per minute (dpm) in medium divided by the sum of dpm recovered from medium and cells. […]

The test system of assay [2] is mononuclear phagocytes. Description: ApoA-I mediated efflux of choline containing phospholipids from monocytes (3H-choline). It is filed as cell-based, Human. The note with it: ApoA-I 10 µg/ml + 24 h pretreatment with forskolin 10 µM, percent of basal efflux, men and women. The method, then: Cellular Lipid Efflux. Human peripheral blood cells were isolated from lithium-heparin treated blood samples of adult, healthy volunteers. The peripheral blood mononuclear cell fraction was separated by density gradient centrifugation over Ficoll-Histopaque […] (Sigma). Cells positive for CD2, CD7, CD16, CD19 and CD56 were removed by appropriate magnetic beads (Dynal) leaving > 80% pure monocytes. Isolated monocytes were then cultured at a density of 1.5x10^5 cells/mL in polystyrene culture dishes (100x15mm Petri dish, Falcon) in a serum-free macrophage medium (Macrophage-SFM, Gibco Life Technologies) supplemented with 50ng/mL human recombinant M-CSF (R&D Systems). After an overnight incubation cells were cholesterol loaded for 24 hrs by addition of enzymatically modified LDL (E-LDL; 40 µg/ml), which was prepared as previously described (31). The incubation medium was further supplemented with ^14C-cholesterol (1.5 µCi/ml) and ^3H-choline (10µCi/ml) in order to label cellular cholesterol and choline containing phospholipids. In a subset of experiments cells were stimulated with 10 µM forskolin during the labeling period. After 24 hrs monocytes were washed and incubated for 17 hrs with or without 10 µg/ml ApoA-I (Sigma) in macrophage medium containing 0.1 % bovine serum albumin and 50ng/mL M-CSF. After incubation the media were removed and centrifuged at 800 x g to precipitate any detached cells. Cells were lysed in 0.2% SDS. Lipids were extracted by liquid extraction according to the method of Bligh and Dyer (13). ^3H and ^14C radioactivities of the total lipid extracts were measured by liquid scintillation counting in order to distinguish between ^3H labeled phospholipids and ^14C-cholesterol. Lipid efflux was calculated as percentage of disintegrations per minute (dpm) in medium divided by the sum of dpm recovered from medium and cells. The ApoA-I specific efflux is expressed a percent of basal unstimulated efflux observed in serum-free macrophage medium without ApoA-I. Statistical Analysis. […]

Assay [3] deals with IL-1β. Description: Inhibition of pro-IL-1β processing and IL-1β release. Type of assay: cell-based.
Assay [4] relates to neutral sphingomyelinase. As to the kind of experiment: Ceramide formation from sphingomyelin. Type of assay: cell-based.
Assay [5] deals with human fibroblasts. As to the kind of experiment: G2-phase cell cycle arrest in fibroblasts. It is filed as cell-based.

Consider two molecules from EP1136552A1, “ATP binding cassette transporter 1 (ABC1) gene polymorphisms and uses thereof for the diagnosis and treatment of lipid disorders, cardiovascular diseases and inflammatory diseases” (Bayer Aktiengesellschaft, priority 2000, dated 2001).

`C=C[C@@]1(C)CC(=O)[C@]2(O)[C@@]3(C)[C@@H](O)CCC(C)(C)[C@@H]3[C@H](O)[C@H](OC(C)=O)[C@@]2(C)O1` [forskolin]: the Cholesterol efflux in assay [1] (596A/A) came to 126.7 ± 37.4%; in assay [1] (wt/wt 596G/G, 2589A/A) it was 121.8 ± 16.4%. Also, the Phospholipid efflux turned out to be 136.7 ± 12.8% in assay [2] (596A/A); 124.5 ± 25.8% in assay [2] (2589G/G); 135.4 ± 20.2% in assay [2] (wt/wt 596G/G, 2589A/A).
On to `COc1ccc(Cl)cc1C(=O)NCCc1ccc(S(=O)(=O)NC(=O)NC2CCCCC2)cc1` [glyburide], for which, in assay [3], the “Caspase I mediated processing of pro-IL-1β and release of mature IL-1β” value is on record as “inhibits”. Also, the “ceramide formation from sphingomyelin mediated by neutral sphingomyelinase” value in assay [4] is recorded as “inhibits”. For the same molecule, the “G2-phase cell cycle arrest” value in assay [5] is “releases human fibroblasts from G2-phase cell cycle arrest”.
